# Experimental data as given in patent publication US10709692B2, “Isoxazolidine derived inhibitors of receptor interacting protein kinase 1 (RIPK1)” (Denali Therapeutics Inc., priority 2015, dated 2020).
# Where “and” joins values, the source holds several entries; their conditions need not be identical. Equal entries are not always repeated.
# Molecular target: T1, receptor interacting protein kinase 1 (GST-hRIPK1 (8-327)) (Homo sapiens, UniProt Q13546)
# T1 construct: GST-hRIPK1 (8-327) enzyme was generated by Proteros GmbH by Baculovirus expression system
# T1 sequence (Q13546 8-327): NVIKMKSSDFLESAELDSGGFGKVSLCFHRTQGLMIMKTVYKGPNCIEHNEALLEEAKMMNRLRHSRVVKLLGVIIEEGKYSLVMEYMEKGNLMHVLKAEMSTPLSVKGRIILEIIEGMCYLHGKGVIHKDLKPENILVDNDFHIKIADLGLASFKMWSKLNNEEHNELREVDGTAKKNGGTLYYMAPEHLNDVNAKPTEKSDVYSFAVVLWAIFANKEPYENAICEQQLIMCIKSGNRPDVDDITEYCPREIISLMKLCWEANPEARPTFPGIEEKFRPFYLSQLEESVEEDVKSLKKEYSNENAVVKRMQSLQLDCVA
# Assay: Fluorescent Polarization Binding (FP Binding) assay
# Conditions: 10 nM GST-hRIPK1 (8-327), 5 nM fluorescent-labeled ligand, 30 min at RT
# Method: Fluorescent Polarization Binding (FP Binding) assay (Berger S. B. et al. (2015) Cell Death Discovery, 1: 15009; Maki J. L. et al. (2012) Anal Biochem., 427(2): 164-174) was performed in polystyrene low volume 384-well black plate, at Room Temperature (RT) in a final volume of 10.1 μl/well using 10 nM of GST-hRIPK1 (8-327) enzyme and 5 nM of fluorescent-labeled ligand (14-(2-{[3-({2-{[4-(cyanomethyl)phenyl]amino}-6-[(5-cyclopropyl-1H-pyrazol-3-yl)amino]-4-pyrimidinyl}amino) propyl]amino}-2-oxoethyl)-16,16,18,18-tetramethyl-6,7,7a,8a,9,10,16,18-octahydrobenzo[2″3″]indolizino[8″, 0.7″:5′,6′]pyrano[3′,2′:3,4]pyrido[1,2-a]indol-5-ium-2-sulfonate.
# Test compounds were serially diluted in DMSO at 100 fold final concentrations in the assay (1% DMSO final). In each well of a 384-well Plate were dispensed 0.1 μL of compound solution (or DMSO for controls) followed by 5 μL of GST-hRIPK1 (8-327) at twice the final concentrations in assay-buffer (50 mM HEPES pH 7.5, 10 mM NaCl, 50 mM MgCl2, 0.02% CHAPS, 0.5 mM DTT and 0.01% Pluronic F127). For negative control the enzyme addition was replaced by assay buffer only.
# After addition of 5 μL of fluorescent-labeled ligand at twice the final concentrations in assay buffer, the plate was incubated at RT for 30 min. At the end, the binding was measured as FP value with the Envision (PerkinElmer) plate reader using filter for an excitation λ=531 nm FP and an emission λ=595 nm FP (S & P-pol).
# Test compound inhibition was expressed as percent inhibition of internal assay controls. For concentration response curves, normalized data is fit and IC50 determined using XL-fit (IDBS) for Excel. IC50 were averaged to determine a mean value, for a minimum of two independent experiments.
# Receptor interacting protein kinase 1 activity of exemplary compounds was determined according to the above general procedures.
# Receptor interacting protein kinase 1 activity of certain compounds was determined according to the above general procedures.
row,SMILES,IC50
1,"CC1(C(=O)N2OCC[C@H]2c2ccc(F)cc2)CCCOC1 (single isomer, unassigned) [Compound 35]",< 1000 nM
2,"CC1(C(=O)N2OCC[C@H]2c2ccc(F)cc2)CCCOC1 (single isomer, unassigned) [Compound 36]",< 1000 nM
3,"CC1(C(=O)N2OCC[C@H]2c2ccc(F)cc2)CCOC1 (single isomer, unassigned) [Compound 40]",< 1000 nM
4,"CC1(C(=O)N2OCC[C@H]2c2ccc(F)cc2)CCOC1 (single isomer, unassigned) [Compound 41]",< 1000 nM
5,"O=C(C1CCO1)N1OCC[C@H]1c1ccccc1 (single isomer, unassigned) [Compound 52]",> 10000 nM
6,"O=C(C1CCO1)N1OCC[C@H]1c1ccccc1 (single isomer, unassigned) [Compound 53]",1000 to 10000 nM
7,"CC(C)(C)C(=O)N1OCC[C@H]1c1ccc(F)nc1 (single isomer, unassigned) [Compound 61]",< 1000 nM and 28 nM
8,"CC(C)(C)C(=O)N1OCC[C@@H]1c1ccc(F)nc1 (single isomer, unassigned) [Compound 62]",1000 to 10000 nM
9,"CC(C)(C)C(=O)N1OCCC1c1ccc(F)cc1 (single isomer, unassigned) [Compound 74, 1-[3-(4-Fluorophenyl)-1,2-oxazolidin-2-yl]-2,2-dimethylpropan-1-one]",> 10000 nM
10,"CC(C(=O)N1OCCC1c1ccc(C#N)cc1)C(F)F (single isomer, unassigned) [Compound 91]",< 1000 nM
11,"CC(C(=O)N1OCCC1c1ccc(C#N)cc1)C(F)F (single isomer, unassigned) [Compound 92]",< 1000 nM
12,"CC(C(=O)N1OCC[C@H]1c1ccc(F)cc1)C(F)(F)F (single isomer, unassigned) [Compound 94]",< 1000 nM
13,"CC(C(=O)N1OCC[C@H]1c1ccc(F)cc1)C(F)(F)F (single isomer, unassigned) [Compound 95]",< 1000 nM
14,"[2H]C1([2H])C[C@@H](c2ccc(C#N)cc2)N(C(=O)C(C)(C)C)O1 (single isomer, unassigned) [Compound 98]",< 1000 nM
15,"C[C@H]1C[C@@H](c2ccc(C#N)cc2)N(C(=O)C(C)(C)C)O1 (single isomer, unassigned) [Compound 99]",< 1000 nM
16,"C[C@@H]1C[C@@H](c2ccc(C#N)cc2)N(C(=O)C(C)(C)C)O1 (single isomer, unassigned) [Compound 100]",< 1000 nM
17,"CC(C)(C)C(=O)N1OCC[C@@H]1c1cc(F)cc(F)c1 (single isomer, unassigned) [Compound 102]",< 1000 nM
18,"CC(C)(C)C(=O)N1OCC[C@H]1c1cc(F)cc(F)c1 (single isomer, unassigned) [Compound 103]",< 1000 nM
19,"Cc1cncc([C@@H]2CCON2C(=O)C(C)(C)C)n1 (single isomer, unassigned) [Compound 107]",< 1000 nM
20,"CC(C)(C)C(=O)N1OCC[C@H]1c1cc(F)cc(C#N)c1 (single isomer, unassigned) [Compound 109]",< 1000 nM and 7 nM
21,"CC1(C(=O)N2OCC[C@H]2c2ccc(F)nc2)CC1(F)F (single isomer, unassigned) [Compound 112]",< 1000 nM
22,"CC1(C(=O)N2OCC[C@H]2c2ccc(F)nc2)CC1(F)F (single isomer, unassigned) [Compound 113]",< 1000 nM
23,"CC1(C(=O)N2OCC[C@H]2c2ccc(F)cc2)CC1(F)F (single isomer, unassigned) [Compound 114]",< 1000 nM
24,"CC1(C(=O)N2OCC[C@H]2c2ccc(F)cc2)CC1(F)F (single isomer, unassigned) [Compound 115]",< 1000 nM
25,"CC(C(=O)N1OCC[C@H]1c1ccc(F)nc1)C1CC1 (single isomer, unassigned) [Compound 116]",< 1000 nM
26,"CC(C(=O)N1OCC[C@H]1c1ccc(F)nc1)C1CC1 (single isomer, unassigned) [Compound 117]",< 1000 nM
27,"Cc1cnc([C@@H]2CCON2C(=O)C(C)C(F)(F)F)cn1 (single isomer, unassigned) [Compound 129]",< 1000 nM
28,"Cc1cnc([C@@H]2CCON2C(=O)C(C)C(F)(F)F)cn1 (single isomer, unassigned) [Compound 130]",< 1000 nM

row,SMILES,IC50
1,"CC1(C(=O)N2OCC[C@H]2c2ccc(F)cc2)CCCO1 (single isomer, unassigned) [Compound 136]",1000 to 10000 nM
2,"CC1(C(=O)N2OCC[C@H]2c2ccc(F)cc2)CCCO1 (single isomer, unassigned) [Compound 137]",1000 to 10000 nM
3,"CC1(C(=O)N2OCC[C@H]2c2ccc(F)nc2)CCOC1 (single isomer, unassigned) [Compound 141]",< 1000 nM
4,"CC1(C(=O)N2OCC[C@H]2c2ccc(F)nc2)CCOC1 (single isomer, unassigned) [Compound 142]",< 1000 nM
5,"CC(C(=O)N1OCC[C@H]1c1ccc(F)nc1)C(F)(F)F (single isomer, unassigned) [Compound 162]",< 1000 nM
6,"CC(C(=O)N1OCC[C@H]1c1ccc(F)nc1)C(F)(F)F (single isomer, unassigned) [Compound 163]",< 1000 nM
7,"CC(C(=O)N1OCC[C@H]1c1ccc(C#N)cc1)C(F)(F)F (single isomer, unassigned) [Compound 179]",< 1000 nM
8,"CC(C(=O)N1OCC[C@H]1c1ccc(C#N)cc1)C(F)(F)F (single isomer, unassigned) [Compound 180]",< 1000 nM
9,"CC(OC(F)(F)F)C(=O)N1OCC[C@H]1c1ccc(F)cc1 (single isomer, unassigned) [Compound 183]",< 1000 nM
10,"CC(OC(F)(F)F)C(=O)N1OCC[C@H]1c1ccc(F)nc1 (single isomer, unassigned) [Compound 184]",< 1000 nM
11,"CC(OC(F)(F)F)C(=O)N1OCC[C@H]1c1ccc(F)nc1 (single isomer, unassigned) [Compound 185]",1000 to 10000 nM
12,"Cc1noc(C)c1C(C)C(=O)N1OCC[C@H]1c1ccc(F)cc1 (single isomer, unassigned) [Compound 186]",1000 to 10000 nM
13,"CC(C(=O)N1OCC[C@H]1c1ccc(F)cc1)C(F)F (single isomer, unassigned) [Compound 188]",< 1000 nM
14,"CC(C(=O)N1OCC[C@H]1c1ccc(F)cc1)C(F)F (single isomer, unassigned) [Compound 189]",< 1000 nM
15,"CC(CC#N)C(=O)N1OCC[C@H]1c1ccc(C#N)cc1 (single isomer, unassigned) [Compound 209]",< 1000 nM
16,"CC(CC#N)C(=O)N1OCC[C@H]1c1ccc(C#N)cc1 (single isomer, unassigned) [Compound 210]",1000 to 10000 nM
17,"CC1(C(=O)N2OCC[C@H]2c2ccc(F)c(F)c2)CCOC1 (single isomer, unassigned) [Compound 211]",< 1000 nM
18,"CC1(C(=O)N2OCC[C@H]2c2ccc(F)c(F)c2)CCOC1 (single isomer, unassigned) [Compound 212]",< 1000 nM
19,"CC(C(=O)N1OCC[C@H]1c1ccc(C#N)cc1)C1CC1 (single isomer, unassigned) [Compound 213]",< 1000 nM
20,"CC(C(=O)N1OCC[C@H]1c1ccc(C#N)cc1)C1CC1 (single isomer, unassigned) [Compound 214]",< 1000 nM
21,"CC1CC1C(=O)N1OCC[C@H]1c1ccc(C#N)cc1 (single isomer, unassigned) [Compound 215]",< 1000 nM
22,"CC1CC1C(=O)N1OCC[C@H]1c1ccc(C#N)cc1 (single isomer, unassigned) [Compound 216]",1000 to 10000 nM
23,"Cc1ncc([C@@H]2CCON2C(=O)C(C)C2CC2)cc1F (single isomer, unassigned) [Compound 217]",< 1000 nM
24,"Cc1ncc([C@@H]2CCON2C(=O)C(C)C2CC2)cc1F (single isomer, unassigned) [Compound 218]",< 1000 nM
25,"CC(CC(F)(F)F)C(=O)N1OCC[C@H]1c1ccc(C#N)cc1 (single isomer, unassigned) [Compound 230]",< 1000 nM
26,"CC(CC(F)(F)F)C(=O)N1OCC[C@H]1c1ccc(C#N)cc1 (single isomer, unassigned) [Compound 231]",< 1000 nM
27,"CC(CC(F)F)C(=O)N1OCC[C@H]1c1ccc(C#N)cc1 (single isomer, unassigned) [Compound 232]",< 1000 nM
